Measurements reported in patent US20260356817A1, “AMINOPYRIMIDINE AND AMINOTRIAZINE DERIVATIVES AS MYC PROTEIN MODULATORS” (Sanford Burnham Prebys Medical Discovery Institute, priority 2022, published 2026).
Like-named read-outs stand apart in the source and are kept apart here.

Legend:
[1] = test system: Myc; assay: Myc inhibition assay: Myc expression per cell by anti-Myc immunofluorescence, high-content imaging; assay type: cell-based, human (patient-derived medulloblastoma xenograft cells); details: for IC50: medulloblastoma PDX cells, 4 h
How it was run: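 IC50 comes from high-content imaging of per-cell Myc immunostaining (DAPI-labelled nuclei) after 4 h compound exposure. Cells were freshly dissociated medulloblastoma PDX tumours, never passaged in vitro, grown in NSG mouse cerebellum, plated serum-free and recovered overnight before treatment.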

[2] = test system: Myc; assay: Myc levels in intracranial medulloblastoma PDX tumors in mice after oral administration (Western blot); assay type: in vivo, NSG mice transplanted with medulloblastoma PDX cells
Method: NSG mice transplanted with medulloblastoma PDX cells were treated by oral administration with either vehicle (10% DMSO, 10% Tween 80) or Compound 171 (100 mg/kg). After 5.5 hours, animals were sacrificed, and tumors were harvested, dissociated, lysed and subjected to Western blotting with antibodies specific for Myc or GAPDH as control.

[3] = test system: medulloblastoma PDX cells; assay: CellTiter Glo viability of medulloblastoma PDX cells; assay type: cell-based, human (patient-derived); details: 0.18 μM
Method: (§1) Medulloblastoma PDX cells were harvested from the brains of tumor-bearing mice, cultured overnight, and then treated with Compound 171 for various amounts of time. Cells cultured for time points of 1 hour, 2 hours, and 4 hours were lysed and subjected to Western blotting with antibodies specific for Myc or GAPDH as control, as shown in FIG. 4A. Cells cultured for longer time points of 48 hours and 96 hours were assayed for viability using the CellTiter Glo assay, as shown in FIG. 4B and FIG. 4C.

[4] = test system: Myc; assay: Western blot of Myc in THP-1 cells (acute monocytic leukemia); assay type: cell-based; details: 0.18 μM and 1.0 μM, 4 hours, Western blot (FIG. 5A)
Method: (§2) Cell lines derived from acute monocytic leukemia, acute promyelocytic leukemia, pancreatic adenocarcinoma and small cell lung cancer were treated with vehicle (DMSO) or the indicated concentrations of Compound 171 for 4 hours, and then lysed and subjected to Western blotting using antibodies specific for Myc or GAPDH as control.

[5] = test system: Myc; assay: Western blot of Myc in cultured medulloblastoma PDX cells; assay type: cell-based, human (patient-derived); details: 0.18 μM, Western blot (FIG. 4A)
Method: as §1

[6] = test system: Myc; assay: Western blot of Myc in BxPC-3 cells (pancreatic adenocarcinoma); assay type: cell-based; details: 0.18 μM and 1.0 μM, 4 hours, Western blot (FIG. 5C)
Method: as §2

[7] = test system: retinoblastoma (Rb) protein; assay: Rb protein expression in PDX511 medulloblastoma cells (immunofluorescence); assay type: cell-based, human (patient-derived)
[8] = test system: Myc; assay: Western blot of Myc in H-82 cells (small cell lung cancer); assay type: cell-based; details: 0.18 μM and 1.0 μM, 4 hours, Western blot (FIG. 5D)
Method: as §2

[9] = test system: PDX511 medulloblastoma cells; assay: Cell viability of PDX511 medulloblastoma cells at 4 hours; assay type: cell-based, human (patient-derived)
[10] = Plasma and brain concentrations in NSG mice after oral administration (LCMS); assay type: in vivo, mice (non-tumor-bearing NSG); details: 100 mg/kg oral
Method: Non-tumor-bearing NOD-SCID-IL2Rgamma knockout (NSG) mice were treated with Compound 171 at 100 mg/kg via oral administration. Blood was collected retro-orbitally or by cardiac puncture for measuring compound concentrations. For measurements of compound concentration in the brain, animals were sacrificed, and brain tissue was harvested and homogenized. Compound concentration was determined by liquid chromatography-mass spectrometry (LCMS).

[11] = test system: Myc; assay: Western blot of Myc in HL-60 cells (acute promyelocytic leukemia); assay type: cell-based; details: 0.18 μM and 1.0 μM, 4 hours, Western blot (FIG. 5B)
Method: as §2

FC(F)(F)c1cccc(Nc2nccc(-c3ccc4nc[nH]c4c3)n2)c1 [Compound 171, 4-(1H-Benzo[d]imidazol-6-yl)-N-(3-(trifluoromethyl)phenyl)pyrimidin-2-amine 2HCl]
Myc expression inhibition (in words) ([1]; PDX511 medulloblastoma cells (FIG. 3A)): Myc expression inhibition | IC50 ([1]; Table 1, read-out: IC50 (Myc inhibition)): < 200 nM | IC50 ([1]; Table 2, read-out: MYC Inhibition IC50): < 200 nM | reduction of Myc levels in intracranial tumors ([2]; 100 mg/kg oral (FIG. 7)): reduction of Myc levels | mice with undetectable Myc expression in intracranial tumors ([2]; 100 mg/kg oral, after more than 5 hours (5.5 hours), Western blot): 3 out of 6 | reduction in cell viability by 48 hours ([3]; 48 hours, CellTiter Glo (FIG. 4B)): 80% | reduction in cell viability by 96 hours ([3]; 96 hours, CellTiter Glo (FIG. 4C)): 100% | inhibition of Myc, THP-1 [4]: substantial inhibition of Myc | inhibition of Myc expression at 2 and 4 hours ([5]; 2 and 4 hours vs 1 hour): greater inhibition | time of first inhibition of Myc expression [5]: ≤ 1 h | inhibition of Myc, BxPC-3 [6]: substantial inhibition of Myc | effect on expression of the retinoblastoma (Rb) protein [7]: no effect | inhibition of Myc, H-82 [8]: substantial inhibition of Myc | effect on cell viability [9]: no effect | blood-brain-barrier crossing and retention in the brain [10]: ability to cross the blood-brain-barrier with good retention in the brain | time for which brain concentration remained above the IC90 level ([10]; brain): more than 6 hours | time for which plasma concentration remained above the IC90 level ([10]; plasma): more than 6 hours | inhibition of Myc, HL-60 [11]: substantial inhibition of Myc
